Test results published in paper PMC7728545 (Cell, 2020).
Where two headings read alike, the source gives them in different places.

What was measured:
EcCdnD = EcCdnD (Enterobacter hormaechei, UniProt P0DSP4); type: biochemical; details: 10 mM MgCl2, 50 mM CAPSO pH 9.4, 37 °C
AbCdnD = biological target: T1, AbCdnD (Acinetobacter sp. ATCC 27244, UniProt C0VHD2); test: cyclic oligonucleotide synthesis; type: biochemical; details: K+, Mg2+, Mn2+, pH 9.0-9.4, 37 °C
T1 sequence (C0VHD2 1-343): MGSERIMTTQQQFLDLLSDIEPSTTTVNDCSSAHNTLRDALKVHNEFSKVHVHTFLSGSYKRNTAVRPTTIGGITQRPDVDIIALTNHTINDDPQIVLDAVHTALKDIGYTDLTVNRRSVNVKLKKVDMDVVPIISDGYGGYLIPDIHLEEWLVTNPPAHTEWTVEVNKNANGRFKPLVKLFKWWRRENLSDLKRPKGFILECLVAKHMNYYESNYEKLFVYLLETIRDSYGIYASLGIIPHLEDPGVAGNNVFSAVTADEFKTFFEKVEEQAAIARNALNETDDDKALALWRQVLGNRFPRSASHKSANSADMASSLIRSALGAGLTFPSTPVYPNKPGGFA

AbCap4 K69A = AbCap4 K69A (Acinetobacter baumannii, UniProt C0VHC9 1-462, K69A); test: EMSA
EcCap4 K74A = biological target: T2, EcCap4 K74A (Enterobacter cloacae, UniProt P0DUD5 1-499, K74A); test: EMSA
T2 sequence: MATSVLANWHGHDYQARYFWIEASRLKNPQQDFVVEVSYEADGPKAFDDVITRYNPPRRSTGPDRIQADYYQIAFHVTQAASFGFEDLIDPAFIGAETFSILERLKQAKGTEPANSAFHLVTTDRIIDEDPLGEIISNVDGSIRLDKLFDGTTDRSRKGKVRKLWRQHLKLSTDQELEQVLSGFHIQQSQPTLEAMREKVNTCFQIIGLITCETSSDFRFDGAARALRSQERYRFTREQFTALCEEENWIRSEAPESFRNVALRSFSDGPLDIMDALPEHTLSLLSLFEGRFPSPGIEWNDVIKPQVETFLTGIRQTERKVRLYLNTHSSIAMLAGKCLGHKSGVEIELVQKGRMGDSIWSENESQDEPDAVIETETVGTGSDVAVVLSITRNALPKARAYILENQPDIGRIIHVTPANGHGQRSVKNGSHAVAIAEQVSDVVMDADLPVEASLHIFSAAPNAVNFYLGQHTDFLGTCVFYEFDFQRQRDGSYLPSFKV

## Nc1nc2c(ncn2[C@@H]2O[C@H](COP(=O)(O)OP(=O)(O)OP(=O)(O)O)[C@@H](O)[C@H]2O)c(=O)[nH]1 [GTP]
EcCdnD; co-substrate ATP
  TLC with 32P-label: EcCdnD: ATP, GTP

## Nc1ncnc2c1ncn2[C@@H]1O[C@H](COP(=O)(O)OP(=O)(O)OP(=O)(O)O)[C@@H](O)[C@H]1O [ATP]
AbCdnD
  cyclic oligonucleotide synthesis; AbCap4 activation, TLC, HPLC: ATP is necessary and sufficient to allow AbCdnD to synthesize the activating nucleotide second messenger
EcCdnD; co-substrate GTP, labelled compound
  TLC with 32P-label: EcCdnD: ATP, GTP

B1: DNA45 (45 bp DNA) (dsDNA)
DNA 1: TACAGATCTACTAGTGATCTATGACTGATCTGTACATGATCTACA
DNA 2: TGTAGATCATGTACAGATCAGTCATAGATCACTAGTAGATCTGTA
AbCap4 K69A
  binding result: binds
EcCap4 K74A
  binding result: binds
